The assay deals with T1, mushroom tyrosinase.
T1 construct: mushroom tyrosinase (Sigma T-7755)
The assay is described as follows: Mushroom Tyrosinase Assay. It is filed as biochemical. The settings on record: L-DOPA substrate, pH 7.0, absorbency 475 nm, vs ethanol control. The procedure: Mushroom tyrosinase inhibition is indicative of reduction in melanin synthesis, thereby showing skin lightening effect.
Into each well of a 96-well plate, 150 microliters of phosphate buffer (100 mM, pH 7.0), 10 microliters of L-DOPA (L-3, 4-Dihydroxyphenylalanine, 10 mM), and 20 microliters of skin lightening agent (dissolved in ethanol, which is the control) were added. Following an initial measurement of background absorbency at 475-nm, 20 microliters of mushroom tyrosinase (Sigma T-7755; 6050 units/ml) was added and incubated at room temperature.
Absorbency is read at 475-nm over the following time points: 0, 2, 4, and 6.5 minutes. The data is plotted as 475-nm absorbency vs. time (minutes) and the slope of the line is calculated (ΔAbs 475 nm/min).

Where [1] appears, read: Experiment 1, read-out: IC50 (Concentration) Experiment 1.
The mark [2] stands for this setting: Experiment 2, read-out: IC50 (Concentration) Experiment 2.

Like-named read-outs stand apart in the source and are kept apart here.

Take `CCc1ccc(O)cc1O` [4-Ethyl Resorcinol, reference compound]: the IC50 reads like this: under setting [1], 0.55 µM; under setting [2], 0.4 µM.
In the case of `Oc1ccc(C2SCCS2)c(O)c1` [5-member Di-Thianyl Resorcinol, 4-[2′-(1′,3′-dithiacyclopenty)]-1,3-dihydroxybenzene], the IC50 amounted to 3.8 µM under setting [1] and 2.5 µM under setting [2].
In the case of `Oc1ccc(C2SCCCS2)c(O)c1` [6-member Di-Thianyl Resorcinol, 4-[2′-(1′,3′-dithiacyclohexy)]-1,3-dihydroxybenzene], the IC50 under setting [1] was determined as 1.7 µM and the IC50 under setting [2] worked out at 1 µM.

For the origin of these results see US7524485B2, “Skin lightening agents, compositions and methods” (Unilever Home & Personal Care, USA, Division of Conopco, …, priority 2002, dated 2009).
